Data: US12122750B2, “AT2R antagonists and uses thereof” (Eli Lilly and Company, priority 2022, dated 2024)

Legend:
[1] = Plasma concentration of test compound in the receptor occupancy study; assay type: in vivo, Sprague Dawley rats; conditions: rat
Description: Twenty male Sprague Dawley rats (140-150 gms, Envigo) were maintained under controlled laboratory conditions on a 12 hr light cycle with ad lib access to food and water. On the morning of the experiment, rats were orally dosed with vehicle (1% (w/v) hydroxyethylcellulose, 0.25% (w/v) polysorbate 80, 0.05% (v/v) antifoam 1510-US in purified water) or appropriate doses of test compound (5 mL/kg, n=4 rats/group) using the same vehicle. Following a pre-determined survival time, plasma and adrenals were collected and frozen at −80° C. until analyzed. Frozen 20 μm sections of an adrenal from each animal were collected onto gelatin-coated slides and stored at −80° C. Autoradiography to detect AT2R occupancy (RO) was conducted under cold conditions using methods modified from F. M. J. Heemskerk, et al, Brain Research 677 (1995) 29-38. Total binding was defined by 0.3 nM ^125I-CGP42112 (selective AT2R agonist, Perkin Elmer, Inc) with the addition of 10 μM unlabeled AngII used to define non-specific binding. Following exposure to a phosphoimager plate (BAS TR2025, GE Healthcare), the bound radioactivity is calculated with use of MCID software (Imaging Research, Inc) and calibrated ^125I standards (American Radiolabeled Chemicals, Inc). The specific ligand binding for each animal is calculated by subtracting the non-specific binding from the total bound.

[2] = target: recombinant human angiotensin-II receptor subtype 2 (hAT2R) (Homo sapiens (Human), UniProt P50052); assay: Competitive radioligand binding assay (SPA), hAT2R HEK293 membranes; conditions: [125I]-Tyr4-Angiotensin-II, read-out: AT2R Ki
How it was run: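 SPA competition binding on membranes from HEK293 cells stably transfected with hAT2R (0.25 μg/well, with 0.1 mg/well PVT-WGA beads) in 50 mM Tris-HCl pH 7.5, 150 mM NaCl, 0.1% fatty-acid-free BSA. Ten-point four-fold dilution curves ran from 50 μM top final concentration. Bound radioactivity was counted (CPM) after 10 h at room temperature.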

AT2R = AT2R (Rattus norvegicus (Rat), UniProt P35351); assay: Inhibition of C21-induced increase in dermal blood flow (laser Doppler imaging); assay type: in vivo, Sprague Dawley rats
Chain of AT2R (P35351 whole entry): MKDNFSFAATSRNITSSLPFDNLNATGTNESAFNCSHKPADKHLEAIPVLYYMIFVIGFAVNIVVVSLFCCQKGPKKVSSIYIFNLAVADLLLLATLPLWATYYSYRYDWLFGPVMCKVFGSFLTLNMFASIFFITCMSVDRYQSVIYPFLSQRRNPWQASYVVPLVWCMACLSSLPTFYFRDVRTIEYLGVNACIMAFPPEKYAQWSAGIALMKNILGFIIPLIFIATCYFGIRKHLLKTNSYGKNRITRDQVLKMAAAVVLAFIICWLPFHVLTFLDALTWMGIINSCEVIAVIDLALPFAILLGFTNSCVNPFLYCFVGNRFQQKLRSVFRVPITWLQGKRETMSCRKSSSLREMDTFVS

Chain of recombinant human angiotensin-II receptor subtype 2 (hAT2R) (P50052 whole entry): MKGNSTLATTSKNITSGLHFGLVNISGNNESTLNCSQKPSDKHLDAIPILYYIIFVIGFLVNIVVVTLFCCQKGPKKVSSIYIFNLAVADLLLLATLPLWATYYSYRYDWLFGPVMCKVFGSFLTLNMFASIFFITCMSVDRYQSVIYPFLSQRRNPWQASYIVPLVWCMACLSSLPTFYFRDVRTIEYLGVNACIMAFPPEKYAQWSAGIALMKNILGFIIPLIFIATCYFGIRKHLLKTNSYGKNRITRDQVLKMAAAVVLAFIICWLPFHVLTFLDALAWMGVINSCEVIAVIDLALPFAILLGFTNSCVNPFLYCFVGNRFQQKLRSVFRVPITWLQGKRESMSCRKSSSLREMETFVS

Row | Structure (SMILES) | [plasma, free, nM] ([1]; oral dose 0.3 mg/kg) [nM] | [plasma, free, nM] ([1]; oral dose 1 mg/kg) [nM] | [plasma, free, nM] ([1]; oral dose 3 mg/kg) [nM] | [plasma, free, nM] ([1]; oral dose 10 mg/kg) [nM] | Ki [2] [nM] | mode of action at AT2R (inhibition of C21-induced dermal blood flow) (AT2R; AT2R agonist C21 intradermal) | inhibition at 0.3 mg/kg (AT2R; dose 0.3 mg/kg, C21-induced increase in dermal blood flow) [%] | inhibition at 3 mg/kg (AT2R; dose 3 mg/kg, C21-induced increase in dermal blood flow) [%] | inhibition at 10 mg/kg (AT2R; C21-induced increase in dermal blood flow) [%] | inhibition at 10 mg/kg (AT2R; second, unlabelled column under % Inhibition) [%] | [plasma, free, nM] ([1]; oral dose 0.01 mg/kg) [nM] | [plasma, free, nM] ([1]; oral dose 0.03 mg/kg) [nM] | [plasma, free, nM] ([1]; oral dose 0.1 mg/kg) [nM]
1 | O=C(N1CCC(CC(=O)N(c2ccccc2)c2ccccc2)(C(=O)O)CC1)N1CCc2ccccc21 [Example 3, 1-(indoline-1-carbonyl)-4-[2-oxo-2-(N-phenylanilino)ethyl]piperidine-4-carboxylic acid] | 0.482 | 1.74 | 5.99 | 15.8 | 5.36 | acting as a antagonist | 49.6 | 62.9 | 74.3 | 95.6 |  |  | 
2 | CN(C(=O)N1CCC(CC(=O)N(c2ccccc2)C(C2CC2)C2CC2)(C(=O)O)CC1)c1ccc(F)cc1 [Example 18, 4-[2-[N-(dicyclopropylmethyl)anilino]-2-oxo-ethyl]-1-[(4-fluorophenyl)-methyl-carbamoyl]piperidine-4-carboxylic acid] |  | 2.57 |  |  | 9.59 |  |  |  |  |  | 0.0298 | 0.224 | 0.476
